Measurements as given in US20250115926A1, “DEREGULATED DHS AND TYRA ENZYMES OF GRASSES ENABLE EFFICIENT PRODUCTION OF BOTH TYROSINE AND PHENYLALANINE” (Wisconsin Alumni Research Foundation, priority 2023, published 2025).
Values belong to the compound of their own block, whether it stands above or below them.

How the values were obtained:
[1] = target: Brachypodium distachyon BdDHS1a, SEQ ID NO: 1, recombinant (Brachypodium distachyon, UniProt I1GSB3); assay: DHS activity: kinetics and effector inhibition
Chain of Brachypodium distachyon BdDHS1a, SEQ ID NO: 1, recombinant (I1GSB3 46-537): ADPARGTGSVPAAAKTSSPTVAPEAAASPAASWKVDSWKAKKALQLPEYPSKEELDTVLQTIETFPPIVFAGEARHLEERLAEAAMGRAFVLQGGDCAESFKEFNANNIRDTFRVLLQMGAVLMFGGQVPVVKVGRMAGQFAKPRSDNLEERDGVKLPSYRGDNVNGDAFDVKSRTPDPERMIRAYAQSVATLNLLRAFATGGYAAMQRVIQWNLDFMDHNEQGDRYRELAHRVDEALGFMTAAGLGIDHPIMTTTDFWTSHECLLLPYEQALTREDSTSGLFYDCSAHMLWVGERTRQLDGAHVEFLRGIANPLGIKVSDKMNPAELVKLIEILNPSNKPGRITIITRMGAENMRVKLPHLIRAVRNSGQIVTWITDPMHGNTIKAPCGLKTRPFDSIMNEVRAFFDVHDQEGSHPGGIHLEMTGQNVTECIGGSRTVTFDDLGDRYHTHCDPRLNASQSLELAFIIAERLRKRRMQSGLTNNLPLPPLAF
Source text: (§1) To examine their functional properties, the recombinant DHS enzymes of Brachypodium were produced and characterized in vitro.
(§2) As recent studies have shown that plant DHS enzymes are feedback-inhibited by multiple effector molecules^15, 16, we tested the effect of AAAs and another 14 related metabolites, including various intermediates of the shikimate pathway and the pathways downstream of AAAs, on Brachypodium DHS enzymes.
(§3) The DHS assay for UHPLC-MS quantification was set up using the same settings as described in the previous paragraph for the UV-based DHS assay, which guaranteed at least 10 minutes of reaction linearity. After a 10-minute incubation, 20 μL of the reactions (out of a total volume of 50 μL) were mixed into 80 μL of methanol, vortexed and transferred to vials for injection. Analysis of DAHP by UHPLC-MS was conducted using the same chromatographic settings as described for the UHPLC-MS analysis of soluble metabolites and compared with an authentic DAHP standard (Sta. Cruz biotechnology, cat. no. sc-216432).

[2] = target: Brachypodium distachyon BdDHS2, SEQ ID NO: 5, recombinant (Brachypodium distachyon, UniProt I1I809); assay: DHS activity: kinetics and effector inhibition; assay type: biochemical
Chain of Brachypodium distachyon BdDHS2, SEQ ID NO: 5, recombinant (I1I809 31-503): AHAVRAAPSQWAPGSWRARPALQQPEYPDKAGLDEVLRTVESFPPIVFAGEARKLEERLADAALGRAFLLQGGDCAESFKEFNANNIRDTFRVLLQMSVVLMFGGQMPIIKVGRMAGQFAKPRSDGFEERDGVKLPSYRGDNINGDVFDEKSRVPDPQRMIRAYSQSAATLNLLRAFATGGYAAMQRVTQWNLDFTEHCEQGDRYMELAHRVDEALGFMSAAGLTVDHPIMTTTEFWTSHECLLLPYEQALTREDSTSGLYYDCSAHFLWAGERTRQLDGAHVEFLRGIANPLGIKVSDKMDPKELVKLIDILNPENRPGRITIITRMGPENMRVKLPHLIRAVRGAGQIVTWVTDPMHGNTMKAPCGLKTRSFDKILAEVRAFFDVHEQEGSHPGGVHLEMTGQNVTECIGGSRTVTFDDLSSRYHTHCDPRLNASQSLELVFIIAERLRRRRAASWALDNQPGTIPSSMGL
Source text: as §1, §2, §3

[3] = target: Brachypodium distachyon BdDHS1b, SEQ ID NO: 3, recombinant (Brachypodium distachyon, UniProt I1H4W3); assay: DHS activity: kinetics and effector inhibition; assay type: biochemical
Chain of Brachypodium distachyon BdDHS1b, SEQ ID NO: 3, recombinant (I1H4W3 37-542): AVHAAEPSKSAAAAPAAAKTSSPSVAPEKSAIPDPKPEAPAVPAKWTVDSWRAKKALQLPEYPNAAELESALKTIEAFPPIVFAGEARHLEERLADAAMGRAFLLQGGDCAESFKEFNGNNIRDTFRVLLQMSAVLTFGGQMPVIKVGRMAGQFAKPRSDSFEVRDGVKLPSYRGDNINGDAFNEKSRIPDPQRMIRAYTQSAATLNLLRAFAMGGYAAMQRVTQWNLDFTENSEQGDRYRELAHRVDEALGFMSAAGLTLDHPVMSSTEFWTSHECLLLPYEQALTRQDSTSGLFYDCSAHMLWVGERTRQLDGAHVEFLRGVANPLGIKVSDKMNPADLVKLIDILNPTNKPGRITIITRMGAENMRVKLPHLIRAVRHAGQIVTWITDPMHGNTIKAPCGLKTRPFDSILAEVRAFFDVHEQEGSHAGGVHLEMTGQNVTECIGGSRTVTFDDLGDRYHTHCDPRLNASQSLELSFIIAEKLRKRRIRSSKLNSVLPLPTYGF
Source text: as §1, §2, §3

grass DHS enzymes = assay: DHS activity: effector inhibition; assay type: biochemical; conditions: 0.5 mM (FIGS. 4, 15, 17)
Description: as §2, §3

[4] = tested on: recombinant Sorghum DHS enzymes; assay: DHS activity: effector inhibition; assay type: biochemical, Sorghum bicolor; conditions: 0.5 mM (FIG. 17)
Description: (§4) In contrast, BdDHS1b was not inhibited by arogenate even up to 2.5 mM. In fact, DHS1b activity increased in the presence of high concentrations of arogenate (FIG. 4F), likely due to high concentrations of contaminant NaCl present in the arogenate preparation (FIG. 16). Under acidic conditions, arogenate is known to undergo a spontaneous dehydration and decarboxylation into […]. […] Like in Brachypodium DHS enzymes, 0.5 mM arogenate inhibited SbDHS1a and SbDHS2 at ˜50% and ˜40%, respectively, but had no effect on SbDHS1b.

[5] = target: T1, Sorghum bicolor SbDHSnc, SEQ ID NO: 15, recombinant (Sorghum bicolor, UniProt C5WRG8); assay: DHS activity: effector inhibition; assay type: biochemical; conditions: effector 0.5 mM
T1 construct: synthesized into pET28a, E. coli KRX
T1 sequence (C5WRG8 36-499): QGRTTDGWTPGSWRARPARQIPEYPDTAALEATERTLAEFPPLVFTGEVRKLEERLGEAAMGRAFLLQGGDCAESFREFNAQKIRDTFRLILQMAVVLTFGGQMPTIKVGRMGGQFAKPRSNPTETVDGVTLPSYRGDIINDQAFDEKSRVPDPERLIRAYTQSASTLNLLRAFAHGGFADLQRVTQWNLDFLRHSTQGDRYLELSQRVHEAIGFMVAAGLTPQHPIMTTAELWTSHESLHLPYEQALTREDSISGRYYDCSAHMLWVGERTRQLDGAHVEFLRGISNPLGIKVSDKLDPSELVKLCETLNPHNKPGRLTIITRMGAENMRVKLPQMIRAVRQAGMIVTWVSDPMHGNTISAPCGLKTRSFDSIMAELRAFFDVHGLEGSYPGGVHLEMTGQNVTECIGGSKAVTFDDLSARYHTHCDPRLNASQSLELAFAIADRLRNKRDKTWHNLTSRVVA
Description: as §4

[6] = target: T2, Sorghum bicolor SbDHS2, SEQ ID NO: 13, recombinant (Sorghum bicolor, UniProt C5YJQ4); assay: DHS activity: effector inhibition; assay type: biochemical; conditions: effector 0.5 mM
T2 construct: pET28a (NdeI/BamHI), E. coli KRX
T2 sequence (C5YJQ4 42-508): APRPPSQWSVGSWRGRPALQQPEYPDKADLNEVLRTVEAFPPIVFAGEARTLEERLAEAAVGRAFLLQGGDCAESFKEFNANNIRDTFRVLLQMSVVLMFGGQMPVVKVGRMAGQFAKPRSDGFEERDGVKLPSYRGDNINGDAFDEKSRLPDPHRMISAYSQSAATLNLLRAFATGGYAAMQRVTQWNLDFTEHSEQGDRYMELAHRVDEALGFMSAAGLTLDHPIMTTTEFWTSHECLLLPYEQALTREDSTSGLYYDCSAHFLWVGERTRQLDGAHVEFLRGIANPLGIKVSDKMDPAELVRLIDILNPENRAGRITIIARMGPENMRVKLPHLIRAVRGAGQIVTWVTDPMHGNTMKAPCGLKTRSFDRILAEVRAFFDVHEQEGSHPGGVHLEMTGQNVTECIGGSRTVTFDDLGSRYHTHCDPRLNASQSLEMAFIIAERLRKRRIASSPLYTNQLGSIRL
Description: as §4

[7] = DHS activity with combinations of effectors; assay type: biochemical; conditions: 0.15 mM each effector (FIG. 19)
Description: DHS effector molecules can have synergistic effects when combined in vitro^51. To explore this possibility, we tested the impact of different combinations of tryptophan, tyrosine, arogenate and chorismate, at 0.15 mM each, on the activity of Brachypodium DHS enzymes.

[8] = tested on: Nicotiana benthamiana leaves; assay: Transient expression of Brachypodium DHS in Nicotiana benthamiana leaves (AtRbcS3B promoter), UHPLC-MS; assay type: in vivo; conditions: three days after transient expression
Description: Agrobacterium tumefaciens strain GV3101 transformed with the plant expression constructs were grown at 28° C. for 24 to 36 hours in 10 mL of LB liquid media containing the corresponding antibiotics. The saturated cultures were spun down at 3,000 g for 5 minutes at room temperature and washed twice with 3 mL of induction media (IM; 10 mM MES [2-(N-morpholino) ethanesulfonic acid] buffer pH 5.6, 0.5% glucose, 2 mM NaH2PO4, 20 mM NH4Cl, 1 mM MgSO4, 2 mM KCl, 0.1 mM CaCl2), 0.01 mM FeSO4, and 0.2 mM acetosyringone). After washing, bacteria cultures were incubated in IM for 2 to 3 hours at room temperature in the dark, pelleted at 3000 g for 5 minutes, and resuspended into 3 mL of 10 mM MES buffer pH 5.6 with 0.2 mM acetosyringone. OD600nm was adjusted to a final density of 0.25 units for pAGM4673::TyrA (FIG. 3F) and pICH47822::DHS (FIG. 5A) infiltration, or 0.5 units for pAGM4673::TyrA-DHS co-expression constructs (FIG. 5B) using 10 mM MES buffer pH 5.6 with 0.2 mM acetosyringone. For infiltration of pICH47822::DHS constructs, the Agrobacterium suspensions were adjusted to OD600nm=0.5 and mixed with an equal volume of a suspension of an Agrobacterium clone transformed with pICH4780::p19 under control of the Arabidopsis ubiquitin ligase promoter adjusted to OD600nm=0.5, resulting in a final mixture of 0.25 OD600nm units for each construct. […] Nicotiana benthamiana plants of around 4-weeks-old were infiltrated close to the end of the light period into four different spots per plant, distributed into two leaves at two infiltrations per leaf, with each individual spot corresponding with a different construct/treatment. In total, each construct was infiltrated as 5 or 6 independent replicates into different plants following a randomized pattern. Samples consisting of the infiltrated leaf limbs, without the main veins, were harvested at ˜72 hours post infiltration and subjected to HPLC or UHPLC-MS analysis (see details below).
Around 30-40 mg of pulverized frozen plant tissue were resuspended into 400 μL of chloroform:methanol (1:2) for ˜1 hour with regular vortexing, followed by centrifugation at 20,000 g for 5 minutes at room temperature. The whole supernatant was transferred to a fresh tube, mixed with 125 μL of chloroform, 300 μL of water, and spun down at 15,000 g for 5 minutes for phase separation. The upper, aqueous phase was recovered and dried down for 4 hours to overnight in a speed-vac at 40° C. The dried pellets were resuspended into 100 μL of methanol 80%, spun down at 20,000 g for 5 minutes, and the supernatant transferred to vials for injection. All reagents used for the extraction were UHPLC-MS grade.
Aromatic amino acids and shikimate were detected using a Vanquish Horizon Binary UHPLC (Thermo Scientific) coupled to a Q Exactive mass spectrometer (Thermo Scientific). Two microliters of the sample were analyzed using a InfinityLab Poroshell 120 HILIC-Z column (150×2.1 mm, 2.7-μm particle size; Agilent) in a gradient of 5 mM ammonium acetate/0.2% acetic acid buffer in water (solvent A) and 5 mM ammonium acetate/0.2% acetic acid buffer in 95% acetonitrile (solvent B) at a flow rate of 0.45 mL/min and column temperature of 40° C. The phase B gradient was: 0-2 min, 94%; 2-9 min, 94-88%; 9-19 min, 88-71%; 19-20 min, 71-20%, 20-21.5 min, 20%; 21.5-22 min, 20-94%; 22-25 min, 94%. All chemicals used to prepare the mobile phases were LC-MS grade. Full MS spectra were recorded between 2 and 19 minutes using full scan in negative mode, under the following parameters: sheath gas flow rate, 55; auxiliary gas flow rate, 20; sweep gas flow rate, 2; spray voltage, 3 kV; capillary temperature, 400° C.; S-lens RF level, 50; resolution, 70,000; AGC target 3×10^6, maximum scan time 100 ms; scan range 70-1050 m/z. Spectral data were integrated manually using Xcalibur 3.0. For ^13C labeled plant samples, ^13C-isotopologues were detected based on a mass increase of 1.00335 atomic mass units for each ^13C atom. […]

[9] = DHS inhibition by arogenate; assay type: biochemical; conditions: FIG. 18
Description: as §3

[10] = DHS inhibition by tryptophan; assay type: biochemical; conditions: FIG. 18
Description: as §3

[11] = tested on: Nicotiana benthamiana leaves; assay: Transient expression of DHS1b orthologs in Nicotiana benthamiana leaves, LCMS (FIG. 21); assay type: in vivo; conditions: 72 hours post-infiltration; for effect on levels of aromatic amino acids and their precursor molecules: vs YPet
Source text: To determine whether the grass DHS1b gene encodes a deregulated DHS in other grass species besides Brachypodium distachyon, BdDHS1b orthologs from Oryza sativa (OsDHS1b) and Sorghum bicolor (SbDHS1b) were cloned into the Golden Gate plant expression vector pICH47822 under control of the RuBisCO small subunit 3B promoter from Arabidopsis thaliana.^52 A 3× human influenza hemagglutinin tag was fused in frame to the C-terminus of the DHS genes to confirm the production of heterologous DHS protein.
Agrobacterium tumefaciens (strain GV3101) clones transformed with the OsDHS1b and SbDHS1b plant expression constructs were infiltrated into the leaves of Nicotiana benthamiana side-by-side with Agrobacterium clones expressing BdDHS1a, BdDHS1b, and the fluorescent protein YPet (negative control). The levels of phenylalanine, tyrosine, tryptophan, and three of their biosynthetic intermediates (shikimate, prephenate, and arogenate) were determined at 72 hours post-infiltration by liquid chromatography coupled to mass spectrometry (LCMS). […] On average, expression of BdDHS1b or OsDHS1b increased phenylalanine, tyrosine, and shikimate levels by 5 to 20-times compared to the YPet negative control (FIG. 21), whereas prephenate and arogenate rose to ˜100-times the control (FIG. 21). […] Based on these findings, BdDHS1b and OsDHS1b, but not SbDHS1b, encode DHS enzymes that can boost the accumulation of aromatic amino acids in planta upon heterologous expression.

Compound: O=C(O)Cc1cc(O)ccc1O [homogentisic acid]
effect on grass DHS at 0.5 mM (grass DHS enzymes): little effect

Compound: BdDHS1a: DHS1a enzyme of Brachypodium distachyon, SEQ ID NO: 1
impact of effector combinations on DHS activity [7]: additional inhibition
phenylalanine accumulation compared to tdTomato control [8]: did not significantly alter
shikimate accumulation compared to tdTomato control [8]: did not significantly alter
tryptophan accumulation compared to tdTomato control [8]: did not significantly alter
tyrosine accumulation compared to tdTomato control [8]: did not significantly alter

Compound: BdDHS2: DHS2 enzyme of Brachypodium distachyon, SEQ ID NO: 5
inhibition mechanism of arogenate for PEP [9]: mixed inhibition
inhibition mechanism of arogenate in respect to E4P [9]: uncompetitive inhibition
impact of effector combinations on DHS activity [7]: additional inhibition
phenylalanine accumulation compared to tdTomato control [8]: did not significantly alter
shikimate accumulation compared to tdTomato control [8]: did not significantly alter
tryptophan accumulation compared to tdTomato control [8]: did not significantly alter
tyrosine accumulation compared to tdTomato control [8]: did not significantly alter
inhibition mechanism of tryptophan in respect to E4P [10]: uncompetitive inhibition

Compound: OsDHS1b: DHS1b enzyme of Oryza sativa, SEQ ID NO: 19
prephenate and arogenate relative to the control [11]: ~100 times
effect on levels of aromatic amino acids and their precursor molecules [11]: increased levels of all measured metabolites except for tryptophan

Compound: SbDHS1b: DHS1b enzyme of Sorghum bicolor, SEQ ID NO: 11
effect on levels of aromatic amino acids and their precursor molecules [11]: little or no significant effect

Now from value to compound:

H Coefficient (only E4P) ([1]; 1.5 mM PEP): 1.8
H Coefficient (only E4P) ([2]; 1.5 mM PEP): 1.5
kcat/EC50 (E4P) [3]: 28300 M⁻¹ s⁻¹
H Coefficient (only E4P) ([3]; 1.5 mM PEP): 2.1
Km ([3]; 1.5 mM PEP, 37° C., read-out: EC50 (E4P) (K0.5)): 400 µM
Compound: O=C[C@H](O)[C@H](O)COP(=O)(O)O [E4P, erythrose 4-phosphate]

effect on grass DHS at 0.5 mM (grass DHS enzymes): little effect
Compound: O=C(O)/C=C/c1ccc(O)c(O)c1 [caffeic acid]

effect on grass DHS at 0.5 mM (grass DHS enzymes): little effect
Compound: C=C(O[C@@H]1C=C(C(=O)O)C=C[C@H]1O)C(=O)O [chorismate]

inhibition at 0.5 mM [4]: no strong inhibition
effect on grass DHS at 0.5 mM (grass DHS enzymes): did not cause significant effects
Compound: N[C@@H](Cc1ccccc1)C(=O)O [phenylalanine]

inhibition at 500 µM [5]: 40 to 50%
inhibition at 500 µM [6]: 40 to 50%
effect of tryptophan ([1]; 0.5 mM (FIG. 4C)): no effect
IC50 ([1]; IC50 (tryptophan), 1.5 mM PEP, 2 mM E4P): > 500 µM
IC50 ([2]; 1.5 mM PEP, 2 mM E4P, read-out: IC50 (tryptophan)): 120 µM
mode of inhibition with respect to E4P ([2]; FIG. 18): uncompetitive inhibition kinetics
mode of inhibition with respect to PEP ([2]; FIG. 18): non-competitive inhibition
effect of tryptophan ([3]; 0.5 mM (FIG. 4C)): no effect
IC50 ([3]; read-out: IC50 (tryptophan)): > 500 µM
Compound: N[C@@H](Cc1c[nH]c2ccccc12)C(=O)O [tryptophan]
